In ChEMBL document CHEMBL5143664, “New synthetic phenylquinazoline derivatives induce apoptosis by targeting the pro-survival members of the BCL-2 family” (Bioorg Med Chem Lett, 2022):
pEC50: −log10 of the molar value. Activity calls are given as the source filed them. The rule behind the calls is not given here.

Legend:
Assay type in all cases: functional, cell-based
[1] = test system: MCF7; experiment: Antiproliferative activity against cisplatin-resistant human MCF7-CR cells assessed as reduction in cell viability after 24 hrs by MTT assay; conditions: MCF7, 24 h
[2] = test system: MCF7; experiment: Antiproliferative activity against human cisplatin resistant human MCF7-CR cells assessed as reduction in cell viability at 15 uM after 24 hrs by MTT assay relative to control
[3] = test system: MCF7; experiment: Antiproliferative activity against human MCF7 cells assessed as reduction in cell viability at 15 uM after 24 hrs by MTT assay relative to control
[4] = test system: MCF7; experiment: Induction of cell death in cisplatin-resistant human MCF7-CR cells assessed as round cell morphology at 10 uM after 24 hrs
[5] = test system: MCF7; experiment: Antiproliferative activity against cisplatin-resistant human MCF7-CR cells cultured as 3D-spheroids assessed as reduction in cell viability at 5 to 25 uM after 24 hrs by alamar blue assay; conditions: dose 5-25 µM, DDE = dose-dependent effect
[6] = test system: MCF7; experiment: Antiproliferative activity against human MCF7 cells transfected with MBR C3 vector assessed as reduction in cell viability after 24 hrs by MTT assay; conditions: MCF7, 24 h
[7] = test system: MCF7; experiment: Induction of cell death in cisplatin-resistant human MCF7-CR cells assessed as reduction in cell volume at 10 uM after 24 hrs
[8] = test system: MCF7; experiment: Induction of cell death in human MCF7 cells assessed as round cell morphology at 10 uM after 24 hrs
[9] = test system: MCF7; experiment: Antiproliferative activity against human MCF7 cells cultured as 3D-spheroids assessed as reduction in cell viability at 5 to 25 uM after 24 hrs by alamar blue assay; conditions: dose 5-25 µM, DDE = dose-dependent effect
[10] = test system: MCF7; experiment: Antiproliferative activity against human MCF7 cells transfected with empty vector assessed as reduction in cell viability after 24 hrs by MTT assay; conditions: MCF7, 24 h
[11] = test system: MCF7; experiment: Antiproliferative activity against cisplatin-resistant human MCF7-CR cells transfected with MBR C2 vector assessed as reduction in cell viability after 24 hrs by MTT assay; conditions: MCF7, 24 h
[12] = test system: MCF7; experiment: Antiproliferative activity against cisplatin-resistant human MCF7-CR cells transfected with MBR C3 vector assessed as reduction in cell viability after 24 hrs by MTT assay; conditions: MCF7, 24 h
[13] = test system: MCF7; experiment: Synergistic antiproliferative activity against cisplatin-resistant human MCF7-CR cells assessed as reduction in cell viability in presence of ABT737 after 24 hrs by MTT assay; conditions: MCF7, 24 h
[14] = test system: MCF7; experiment: Inhibition of colony formation in human MCF7 cells at 5 to 25 uM after 7 days; conditions: dose 5-25 µM, time 7.0 day, DDE = dose-dependent effect
[15] = test system: MCF7; experiment: Induction of cell death in human MCF7 cells assessed as reduction in cell volume at 10 uM after 24 hrs
[16] = test system: MCF7; experiment: Antiproliferative activity against human MCF7 cells assessed as reduction in cell viability after 24 hrs by MTT assay; conditions: MCF7, 24 h
[17] = test system: MCF7; experiment: Synergistic antiproliferative activity against cisplatin-resistant human MCF7-CR cells assessed as reduction in cell viability in presence of cisplatin after 24 hrs by MTT assay; conditions: MCF7, 24 h
[18] = test system: MCF7; experiment: Induction of apoptosis in cisplatin-resistant human MCF7-CR cells assessed as increase in release of cytochrome C in cytosol expression at 10 to 25 uM after 16 hrs by western blot analysis; conditions: dose 10-25 µM, DDE = dose-dependent effect
[19] = test system: MCF7; experiment: Inhibition of colony formation in cisplatin-resistant human MCF7-CR cells at 5 to 25 uM after 7 days; conditions: dose 5-25 µM, time 7.0 day, DDE = dose-dependent effect
[20] = test system: MCF7; experiment: Antiproliferative activity against cisplatin-resistant human MCF7-CR cells transfected with empty vector assessed as reduction in cell viability after 24 hrs by MTT assay; conditions: MCF7, 24 h
[21] = test system: MCF7; experiment: Antiproliferative activity against human MCF7 cells transfected with BCLXL C5 vector assessed as reduction in cell viability after 24 hrs by MTT assay; conditions: MCF7, 24 h
[22] = test system: MCF7; experiment: Synergistic antiproliferative activity against cisplatin-resistant human MCF7-CR cells assessed as reduction in cell viability in presence of taxol after 24 hrs by MTT assay; conditions: MCF7, 24 h
[23] = test system: MCF7; experiment: Induction of apoptosis in cisplatin-resistant human MCF7-CR cells assessed as decrease in BCL2 protein expression at 5 to 25 uM after 16 hrs by western blot analysis; conditions: dose 5-25 µM, DDE = dose-dependent effect
[24] = test system: MCF7; experiment: Induction of apoptosis in cisplatin-resistant human MCF7-CR cells assessed as decrease in BCLXL protein expression at 5 to 25 uM after 16 hrs by western blot analysis; conditions: dose 5-25 µM

CN(C)CC[C@H](CSc1ccccc1)Nc1ccc(S(=O)(=O)NC(=O)c2ccc(N3CCN(Cc4ccccc4-c4ccc(Cl)cc4)CC3)cc2)cc1[N+](=O)[O-] [ABT 737]
pEC50 [1]: 5.36

Cc1ccc(-c2nc(-c3ccccc3)c3cc(Cl)ccc3n2)cc1
Activity [2]: Active
Activity [3]: Active

CC(C)(C)c1ccc(-c2nc(-c3ccccc3)c3cc(Cl)ccc3n2)cc1
Activity [2]: Active
Activity [3]: Active

FC(F)(F)c1ccc(-c2nc(-c3ccccc3)c3cc(Cl)ccc3n2)cc1
Activity [2]: Active
Activity [3]: Active

CC(=O)O[C@H]1C(=O)[C@@]2(C)[C@H]([C@H](OC(=O)c3ccccc3)[C@]3(O)C[C@H](OC(=O)[C@H](O)[C@@H](NC(=O)c4ccccc4)c4ccccc4)C(C)=C1C3(C)C)[C@]1(OC(C)=O)CO[C@@H]1C[C@@H]2O [PACLITAXEL]
pEC50 [1]: 4.35

Fc1cc(-c2nc(-c3ccccc3)c3cc(Cl)ccc3n2)ccc1Br
Activity [2]: Active
Activity [4]: Active
Activity [5]: Dde
pEC50 [6]: 5.53
Activity [7]: Active
Activity [8]: Active
Activity [9]: Dde
pEC50 [10]: 5.06
pEC50 [11]: 5.30
pEC50 [12]: 5.28
pEC50 [13]: 6.54
Activity [14]: Dde
Activity [3]: Active
Activity [15]: Active
pEC50 [16]: 5.30
pEC50 [17]: 5.31
Activity [18]: Dde
pEC50 [1]: 5.26
Activity [19]: Dde
pEC50 [20]: 4.65
pEC50 [21]: 5.16
pEC50 [22]: 5.91
Activity [23]: Dde
Activity [24]: Active

CCOc1cc(-c2nc(-c3ccccc3)c3cc(Cl)ccc3n2)ccc1OC
Activity [2]: Active
Activity [3]: Active

Oc1ccccc1-c1nc(-c2ccccc2)c2cc(Cl)ccc2n1
Activity [2]: Active
Activity [4]: Active
Activity [5]: Dde
pEC50 [6]: 5.52
Activity [7]: Active
Activity [8]: Active
Activity [9]: Dde
pEC50 [10]: 4.85
pEC50 [11]: 5.24
pEC50 [12]: 5.20
pEC50 [13]: 6.28
Activity [14]: Dde
Activity [3]: Active
Activity [15]: Active
pEC50 [16]: 5.20
pEC50 [17]: 5.04
Activity [18]: Dde
pEC50 [1]: 4.67
Activity [19]: Dde
pEC50 [20]: 4.53
pEC50 [21]: 4.99
pEC50 [22]: 5.45
Activity [23]: Dde
Activity [24]: Active

CCOc1ccc(-c2nc(-c3ccccc3)c3cc(Cl)ccc3n2)cc1
Activity [2]: Active
Activity [3]: Active

CCCCOc1ccc(-c2nc(-c3ccccc3)c3cc(Cl)ccc3n2)cc1
Activity [2]: Active
Activity [3]: Active

Oc1cccc(-c2nc(-c3ccccc3)c3cc(Cl)ccc3n2)c1O
Activity [2]: Active
Activity [3]: Active

COc1ccc(-c2nc(-c3ccccc3)c3cc(Cl)ccc3n2)c(F)c1
Activity [2]: Active
Activity [3]: Active
